{
  "source": "patent US20140357726A1",
  "about": "“USE OF PEGYLATED ALCOHOLS FOR THE TREATMENT OF ACTINIC KERATOSIS” (MERZ PHARMA GmbH & CO. KGaA, priority 2011, published 2014)",
  "tested_on": "NHEK-cells",
  "assay": "Resazurin viability assay on primary normal human epidermal keratinocytes (cytolytic potential)",
  "type": "cell-based",
  "conditions": "metabolic activity as read-out (Resazurin-assay); eight concentrations up to 1 mM",
  "method": "By using primary, normal human epidermal keratinocytes (NHEK, FIG. 1) the cytolytic potential of the drug compound was investigated.\nThe viability of the cells was monitored by their metabolic activity using the Resazurin-assay. Eight different concentrations (up to 1 mM) of polidocanol were investigated. Viability of the cells was plotted against the different concentration of test compound.\nFrom the resulting sigmoid-curve the IC50 value for the cytolytic effect was determined and given in the respective figure. FIG. 1 depicts the relative viability of NHEK-cells vs. the concentration of test-compound using metabolic activity as read-out.",
  "data": [
    {"substance": "Polidocanol", "values": [
      {"measurement": "relative viability of NHEK-cells vs. the concentration of test-compound", "result": "clear negative-impact"}
    ]}
  ]
}
